For experiment [1], the target named is Cytochrome P450 2D6 (Homo sapiens, UniProt P10635). The experiment can be described thus: qHTS Assay for Inhibitors and Substrates of Cytochrome P450 2D6. [Related pubchem assays: 410 ]. It counts as ADME. The settings on record: read-out: Potency.
Experiment [2] concerns the target T1, Eukaryotic translation initiation factor 2-alpha kinase 3 (Homo sapiens, UniProt Q9NZJ5). The experiment in a line: Counterscreen assay for PERK inhibitors: Dose response cell-based high throughput screening assay to measure inhibition of PERK at 6 hours. [Related pubchem assays: 1522, 1416 ]. Type of experiment: functional.
The target of experiment [3] is T1, Eukaryotic translation initiation factor 2-alpha kinase 3. The experiment in a line: Dose response cell-based high-throughput screening assay to measure PERK inhibition. [Related pubchem assays: 1416 ]. It counts as functional.
For experiment [4], the target named is Muscarinic acetylcholine receptor M1 (Rattus norvegicus, UniProt P08482). The experiment in a line: Discovery of novel allosteric modulators of the M1 muscarinic receptor: Agonist NMS binding at M1. [Related pubchem assays: 626 ].
For experiment [5], the target named is Muscarinic acetylcholine receptor M5 (Homo sapiens, UniProt P08912). The experiment in a line: Discovery of novel allosteric modulators of the M1 muscarinic receptor: Agonist NMS competition at M5. [Related pubchem assays: 1488 (Discovery of novel allosteric modulators of the M1 muscarinic receptor: Agonist Confirmation Assay), 626 (Discovery of Novel Allosteric Modulators of the M1 Muscarinic Receptor: Agonist Primary Screen)]. It counts as functional.

In experiment [6] the target is Muscarinic acetylcholine receptor M2 (Homo sapiens, UniProt P08172). The experiment in a line: Discovery of novel allosteric modulators of the M1 muscarinic receptor: Agonist NMS competition at M2. [Related pubchem assays: 626 (Discovery of Novel Allosteric Modulators of the M1 Muscarinic Receptor: Agonist Primary Screen), 1488 (Discovery of novel allosteric modulators of the M1 muscarinic receptor: Agonist Confirmation Assay)]. Type of experiment: functional.

In experiment [7] the target is Muscarinic acetylcholine receptor M3 (Homo sapiens, UniProt P20309). The experiment can be described thus: Discovery of novel allosteric modulators of the M1 muscarinic receptor: Agonist NMS competition at M3. [Related pubchem assays: 1488 (Discovery of novel allosteric modulators of the M1 muscarinic receptor: Agonist Confirmation Assay), 626 (Discovery of Novel Allosteric Modulators of the M1 Muscarinic Receptor: Agonist Primary Screen)]. It counts as functional.

The target in experiment [8] is Procathepsin L (Homo sapiens, UniProt P07711).
Experiment [9] deals with Aspartyl aminopeptidase (Plasmodium falciparum 3D7, UniProt Q8I2J3).
In experiment [10] the target is Polyadenylate-binding protein 1 (Homo sapiens, UniProt P11940). The experiment can be described thus: blockers of PABP interaction with poly(A) – biochemical, fluorescence polarization, […] (AID 2014).
The target in experiment [11] is DNA dC->dU-editing enzyme APOBEC-3A (Homo sapiens, UniProt P31941). The experiment in a line: Dose Response confirmation of small molecule APOBEC3A DNA Deaminase Inhibitors via a fluorescence-based single-stranded DNA deaminase assay. [Related pubchem assays (depositor defined):AID493011, AID493024]. It counts as functional.
In experiment [12] the target is DNA dC->dU-editing enzyme APOBEC-3G (Homo sapiens, UniProt Q9HC16). Type of experiment: functional.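 Note: Dose-response counterscreen measuring inhibition of APOBEC3G DNA deaminase activity, run while confirming APOBEC3A inhibitors.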
In experiment [13] the target is Eukaryotic translation initiation factor 4H (Homo sapiens, UniProt Q15056). The experiment can be described thus: eIF4H binding inhibition – biochemical, uHTS, fluorescence polarization, translation initiation inhibitor project, primary screen (AID 2012).
The target of experiment [14] is T2, Alkaline phosphatase, tissue-nonspecific isozyme (Homo sapiens, UniProt P05186).
T2 sequence (P05186 whole entry): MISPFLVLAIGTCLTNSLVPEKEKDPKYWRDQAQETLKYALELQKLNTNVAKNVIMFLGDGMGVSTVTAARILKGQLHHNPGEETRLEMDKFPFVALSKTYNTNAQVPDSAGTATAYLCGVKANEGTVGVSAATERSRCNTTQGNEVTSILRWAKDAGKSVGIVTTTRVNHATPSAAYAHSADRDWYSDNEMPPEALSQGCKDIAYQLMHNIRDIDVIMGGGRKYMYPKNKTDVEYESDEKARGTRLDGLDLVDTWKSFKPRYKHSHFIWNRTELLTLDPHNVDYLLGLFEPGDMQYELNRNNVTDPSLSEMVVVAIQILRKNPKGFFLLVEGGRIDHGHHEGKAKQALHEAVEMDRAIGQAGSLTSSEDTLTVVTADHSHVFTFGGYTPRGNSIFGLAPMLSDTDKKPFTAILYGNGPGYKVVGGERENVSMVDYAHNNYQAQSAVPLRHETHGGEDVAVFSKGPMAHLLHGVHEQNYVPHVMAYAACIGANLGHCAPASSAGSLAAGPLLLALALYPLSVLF

In experiment [15] the target is Peroxisome proliferator-activated receptor gamma/Nuclear receptor corepressor 2 (Homo sapiens, UniProt P37231+Q9Y618). It counts as functional.
Experiment [16] concerns the target Photoreceptor-specific nuclear receptor (Homo sapiens, UniProt Q9Y5X4). Type of experiment: functional.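 Note: potency for compounds that break the NR2E3 corepressor complex and count as activators.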
In experiment [17] the target is Large T antigen (Simian virus 40, UniProt P03070). It counts as functional, Betapolyomavirus macacae.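 Note: Confirmatory-stage PubChem screen for compounds that inhibit SV40 T antigen.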
For experiment [18], the target named is T3, Voltage-gated N-type calcium channel alpha-1B subunit/Amyloid beta A4 precursor protein-binding family A member 1 (Homo sapiens, UniProt Q00975+Q02410). It counts as protein assay.
Experiment [19] concerns the target T3, Voltage-gated N-type calcium channel alpha-1B subunit/Amyloid beta A4 precursor protein-binding family A member 1. It counts as protein assay. This is another data set of the same source.
In experiment [20] the target is Guanyl-specific ribonuclease T1 (Aspergillus oryzae (strain ATCC 42149 / RIB 40), UniProt P00651). The experiment can be described thus: inhibition of ribonuclease T1 activity – biochemical, fluorescence polarization, 1536-well, counter-screen for TPT1 inhibitor project, dose response (AID 2167).
Experiment [21] deals with Likely tRNA 2'-phosphotransferase (Candida albicans (strain SC5314 / ATCC MYA-2876) (Yeast), UniProt Q5A7N4). The experiment can be described thus: inhibition of Candida TPT1 enzyme activity – biochemical, fluorescence polarization, dose response (AID 2160).
Experiment [22] is described as follows: mRNA 3' processing disruption, beta-gal signal increase – luminescence, S. cerevisiae SKY197-pL101, dose response (AID 2525). Type of experiment: functional, cell-based.
Experiment [23] is described as follows: Luminescence Cell-Based Dose Confirmation HTS to Identify Inhibitors of Polyadenylation. It counts as functional.
Experiment [24] has as its target T4, Rac GTPase-activating protein 1 (Homo sapiens, UniProt Q9H0H5).
T4 sequence (Q9H0H5 whole entry): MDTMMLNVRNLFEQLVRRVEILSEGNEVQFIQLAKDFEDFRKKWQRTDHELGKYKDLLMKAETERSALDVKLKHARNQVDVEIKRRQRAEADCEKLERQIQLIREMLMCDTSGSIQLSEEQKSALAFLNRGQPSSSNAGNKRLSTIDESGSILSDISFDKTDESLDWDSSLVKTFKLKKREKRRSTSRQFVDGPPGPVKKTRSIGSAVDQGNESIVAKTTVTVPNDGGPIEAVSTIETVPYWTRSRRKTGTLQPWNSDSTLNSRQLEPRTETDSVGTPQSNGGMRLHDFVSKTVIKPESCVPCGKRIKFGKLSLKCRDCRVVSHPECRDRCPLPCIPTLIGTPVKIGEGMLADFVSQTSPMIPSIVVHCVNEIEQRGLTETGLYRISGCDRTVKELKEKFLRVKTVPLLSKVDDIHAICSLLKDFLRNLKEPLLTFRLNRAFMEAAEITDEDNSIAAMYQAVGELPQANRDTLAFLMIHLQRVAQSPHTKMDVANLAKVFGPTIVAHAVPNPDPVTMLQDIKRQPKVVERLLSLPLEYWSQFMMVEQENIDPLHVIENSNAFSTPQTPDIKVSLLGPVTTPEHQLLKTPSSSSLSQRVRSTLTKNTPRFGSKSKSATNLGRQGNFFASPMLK
The experiment in a line: blockers of MgcRacGAP-driven Rac1 GTP hydrolysis – biochemical, ADP Hunter fluorescence, primary and confirmatory, confirmation (AID 624330). It counts as functional.

The nature of experiment [25]: viability loss in HeLa cells – cytotoxicity control for MgcRacGAP inhibitor project, dose response (AID 624300). Type of experiment: functional.
Experiment [26] addresses Troponin, cardiac muscle (Homo sapiens, UniProt P19429+P45379+P63316). The experiment in a line: Fluorescence-based biochemical high throughput dose response assay for activators of the calcium sensitivity of cardiac Regulated Thin Filaments (RTF). [Related pubchem assays (depositor defined):AID493008, AID493018, AID504382, AID504383]. Type of experiment: protein-complex assay.

For experiment [27], the target named is T5, Histone-lysine N-methyltransferase NSD2 (Homo sapiens, UniProt O96028).
T5 sequence (O96028 whole entry): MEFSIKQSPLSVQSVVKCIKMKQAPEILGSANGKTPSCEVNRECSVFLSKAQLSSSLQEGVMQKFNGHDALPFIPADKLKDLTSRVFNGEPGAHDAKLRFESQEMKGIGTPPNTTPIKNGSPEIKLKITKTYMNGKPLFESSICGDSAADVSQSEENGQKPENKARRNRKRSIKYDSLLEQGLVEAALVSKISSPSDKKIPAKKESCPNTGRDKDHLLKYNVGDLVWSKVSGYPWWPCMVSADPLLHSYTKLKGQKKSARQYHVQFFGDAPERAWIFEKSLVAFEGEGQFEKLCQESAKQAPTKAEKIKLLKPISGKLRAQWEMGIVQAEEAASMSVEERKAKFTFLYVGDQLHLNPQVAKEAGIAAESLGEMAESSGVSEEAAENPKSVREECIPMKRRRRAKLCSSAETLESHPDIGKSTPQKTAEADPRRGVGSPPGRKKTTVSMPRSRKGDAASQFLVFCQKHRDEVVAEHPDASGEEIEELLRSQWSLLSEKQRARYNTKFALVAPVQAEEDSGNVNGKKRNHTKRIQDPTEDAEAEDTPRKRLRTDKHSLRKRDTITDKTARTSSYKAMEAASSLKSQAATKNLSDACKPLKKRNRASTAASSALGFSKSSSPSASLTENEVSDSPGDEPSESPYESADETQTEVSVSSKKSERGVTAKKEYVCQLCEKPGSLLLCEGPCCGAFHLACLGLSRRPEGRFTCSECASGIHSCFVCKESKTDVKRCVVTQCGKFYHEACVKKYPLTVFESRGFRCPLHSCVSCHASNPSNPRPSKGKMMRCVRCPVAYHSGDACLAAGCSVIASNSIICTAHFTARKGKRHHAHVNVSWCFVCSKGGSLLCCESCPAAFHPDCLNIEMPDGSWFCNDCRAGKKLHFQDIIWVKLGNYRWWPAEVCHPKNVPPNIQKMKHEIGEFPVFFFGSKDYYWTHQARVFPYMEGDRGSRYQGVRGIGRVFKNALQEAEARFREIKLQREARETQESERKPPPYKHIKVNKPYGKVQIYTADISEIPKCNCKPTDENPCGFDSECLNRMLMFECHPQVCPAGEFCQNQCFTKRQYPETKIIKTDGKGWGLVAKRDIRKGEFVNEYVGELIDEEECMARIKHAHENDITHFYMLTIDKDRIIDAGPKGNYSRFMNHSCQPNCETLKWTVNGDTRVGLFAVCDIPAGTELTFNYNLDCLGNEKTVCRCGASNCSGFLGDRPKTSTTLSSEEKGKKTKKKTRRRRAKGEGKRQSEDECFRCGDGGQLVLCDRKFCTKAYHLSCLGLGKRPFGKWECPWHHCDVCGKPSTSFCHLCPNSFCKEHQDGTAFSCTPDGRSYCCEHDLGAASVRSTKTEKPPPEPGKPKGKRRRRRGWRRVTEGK
Type of experiment: biochemical.

Experiment [28] has as its target Lysosomal acid glucosylceramidase (Homo sapiens, UniProt P04062). The experiment can be described thus: Dose response cell-based high throughput screening assay to identify enhancers of beta-glucosidase activity. [Related pubchem assays: 784 ]. It counts as functional.
A short description of experiment [29]: A Cell Based Secondary Assay To Explore Cytotoxicity of Compounds that Sensitize Mycobacterium Tuberculosis to Beta-Lactam Antibiotics. Type of experiment: functional.

Calls of active or inactive are those of the source.

T3 sequence (Q00975 whole entry): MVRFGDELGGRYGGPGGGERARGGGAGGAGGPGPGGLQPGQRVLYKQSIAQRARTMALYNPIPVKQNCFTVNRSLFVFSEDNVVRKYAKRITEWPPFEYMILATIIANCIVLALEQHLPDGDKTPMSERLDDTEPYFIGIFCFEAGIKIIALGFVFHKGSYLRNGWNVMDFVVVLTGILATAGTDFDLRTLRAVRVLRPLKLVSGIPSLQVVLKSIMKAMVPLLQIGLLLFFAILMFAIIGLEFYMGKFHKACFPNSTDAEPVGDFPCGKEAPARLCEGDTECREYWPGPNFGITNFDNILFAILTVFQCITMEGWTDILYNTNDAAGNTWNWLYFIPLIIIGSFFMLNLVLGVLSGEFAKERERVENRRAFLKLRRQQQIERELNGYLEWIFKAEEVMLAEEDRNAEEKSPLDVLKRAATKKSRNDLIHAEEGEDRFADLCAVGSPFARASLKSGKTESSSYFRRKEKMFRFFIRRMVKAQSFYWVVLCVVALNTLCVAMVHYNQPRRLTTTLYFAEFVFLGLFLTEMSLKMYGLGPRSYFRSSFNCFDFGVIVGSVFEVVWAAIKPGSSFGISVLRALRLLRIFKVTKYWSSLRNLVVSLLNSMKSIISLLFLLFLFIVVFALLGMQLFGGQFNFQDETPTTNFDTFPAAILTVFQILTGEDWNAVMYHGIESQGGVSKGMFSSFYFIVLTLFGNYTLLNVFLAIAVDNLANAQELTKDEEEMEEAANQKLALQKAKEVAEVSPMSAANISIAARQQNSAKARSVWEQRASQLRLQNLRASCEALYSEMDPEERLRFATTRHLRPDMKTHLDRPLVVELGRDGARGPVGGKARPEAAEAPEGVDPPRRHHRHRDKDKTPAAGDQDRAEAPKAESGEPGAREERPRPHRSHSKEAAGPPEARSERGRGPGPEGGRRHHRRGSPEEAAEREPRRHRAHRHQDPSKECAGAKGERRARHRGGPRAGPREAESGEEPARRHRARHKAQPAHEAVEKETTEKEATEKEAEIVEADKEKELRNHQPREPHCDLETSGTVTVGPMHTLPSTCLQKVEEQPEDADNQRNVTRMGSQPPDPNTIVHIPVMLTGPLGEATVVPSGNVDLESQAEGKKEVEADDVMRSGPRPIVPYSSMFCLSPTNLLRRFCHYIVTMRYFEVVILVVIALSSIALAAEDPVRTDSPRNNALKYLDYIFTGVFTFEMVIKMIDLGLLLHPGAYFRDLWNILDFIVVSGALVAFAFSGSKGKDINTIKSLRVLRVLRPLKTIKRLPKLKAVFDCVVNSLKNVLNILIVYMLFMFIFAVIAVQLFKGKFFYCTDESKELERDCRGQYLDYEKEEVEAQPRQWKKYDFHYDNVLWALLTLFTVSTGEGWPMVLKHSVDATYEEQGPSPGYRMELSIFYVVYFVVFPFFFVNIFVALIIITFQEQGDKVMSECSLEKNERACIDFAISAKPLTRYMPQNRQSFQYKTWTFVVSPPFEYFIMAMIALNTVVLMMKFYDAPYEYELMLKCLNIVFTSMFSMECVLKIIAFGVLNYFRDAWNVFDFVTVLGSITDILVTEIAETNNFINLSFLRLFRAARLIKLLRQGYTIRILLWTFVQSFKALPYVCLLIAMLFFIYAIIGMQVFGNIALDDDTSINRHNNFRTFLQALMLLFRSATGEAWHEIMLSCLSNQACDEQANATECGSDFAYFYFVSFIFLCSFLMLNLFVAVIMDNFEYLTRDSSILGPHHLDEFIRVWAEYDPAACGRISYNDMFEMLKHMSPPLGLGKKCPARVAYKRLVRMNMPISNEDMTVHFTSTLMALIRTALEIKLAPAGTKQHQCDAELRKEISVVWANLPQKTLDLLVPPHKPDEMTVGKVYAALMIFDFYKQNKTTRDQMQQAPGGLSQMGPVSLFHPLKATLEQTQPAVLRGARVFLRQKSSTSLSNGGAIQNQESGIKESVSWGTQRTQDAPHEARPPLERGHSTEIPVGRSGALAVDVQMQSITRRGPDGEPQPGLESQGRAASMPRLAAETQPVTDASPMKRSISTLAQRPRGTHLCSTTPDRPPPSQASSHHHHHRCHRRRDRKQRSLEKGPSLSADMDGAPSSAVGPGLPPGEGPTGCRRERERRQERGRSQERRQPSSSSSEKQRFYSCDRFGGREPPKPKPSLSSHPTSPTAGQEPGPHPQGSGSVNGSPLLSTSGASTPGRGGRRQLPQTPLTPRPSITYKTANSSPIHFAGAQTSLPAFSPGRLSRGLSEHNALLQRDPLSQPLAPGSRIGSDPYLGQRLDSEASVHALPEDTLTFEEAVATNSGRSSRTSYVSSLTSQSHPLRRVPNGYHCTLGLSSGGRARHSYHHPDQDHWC
T3 sequence (Q02410 whole entry): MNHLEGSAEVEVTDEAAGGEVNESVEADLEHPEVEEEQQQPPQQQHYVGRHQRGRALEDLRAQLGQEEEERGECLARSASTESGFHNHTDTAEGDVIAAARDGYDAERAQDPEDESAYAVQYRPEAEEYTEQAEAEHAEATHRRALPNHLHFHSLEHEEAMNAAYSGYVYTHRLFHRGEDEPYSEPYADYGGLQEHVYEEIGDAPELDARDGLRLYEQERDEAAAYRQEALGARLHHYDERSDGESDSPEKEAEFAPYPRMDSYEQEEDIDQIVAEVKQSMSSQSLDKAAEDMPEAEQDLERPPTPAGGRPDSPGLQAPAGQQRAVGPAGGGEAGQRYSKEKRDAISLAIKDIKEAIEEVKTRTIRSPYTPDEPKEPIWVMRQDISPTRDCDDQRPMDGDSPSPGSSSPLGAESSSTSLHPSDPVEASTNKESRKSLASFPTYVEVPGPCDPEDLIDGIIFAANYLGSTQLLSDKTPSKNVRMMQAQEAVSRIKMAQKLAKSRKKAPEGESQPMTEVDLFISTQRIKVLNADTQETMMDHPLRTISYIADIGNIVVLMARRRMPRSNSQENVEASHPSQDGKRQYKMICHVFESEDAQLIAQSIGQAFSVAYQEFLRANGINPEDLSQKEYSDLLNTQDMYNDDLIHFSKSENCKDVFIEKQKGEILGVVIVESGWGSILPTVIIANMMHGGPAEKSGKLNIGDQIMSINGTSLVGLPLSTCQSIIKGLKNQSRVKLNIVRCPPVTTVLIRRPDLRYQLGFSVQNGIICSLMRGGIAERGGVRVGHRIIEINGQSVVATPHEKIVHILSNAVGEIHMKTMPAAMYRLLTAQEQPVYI
T1 sequence (Q9NZJ5 whole entry): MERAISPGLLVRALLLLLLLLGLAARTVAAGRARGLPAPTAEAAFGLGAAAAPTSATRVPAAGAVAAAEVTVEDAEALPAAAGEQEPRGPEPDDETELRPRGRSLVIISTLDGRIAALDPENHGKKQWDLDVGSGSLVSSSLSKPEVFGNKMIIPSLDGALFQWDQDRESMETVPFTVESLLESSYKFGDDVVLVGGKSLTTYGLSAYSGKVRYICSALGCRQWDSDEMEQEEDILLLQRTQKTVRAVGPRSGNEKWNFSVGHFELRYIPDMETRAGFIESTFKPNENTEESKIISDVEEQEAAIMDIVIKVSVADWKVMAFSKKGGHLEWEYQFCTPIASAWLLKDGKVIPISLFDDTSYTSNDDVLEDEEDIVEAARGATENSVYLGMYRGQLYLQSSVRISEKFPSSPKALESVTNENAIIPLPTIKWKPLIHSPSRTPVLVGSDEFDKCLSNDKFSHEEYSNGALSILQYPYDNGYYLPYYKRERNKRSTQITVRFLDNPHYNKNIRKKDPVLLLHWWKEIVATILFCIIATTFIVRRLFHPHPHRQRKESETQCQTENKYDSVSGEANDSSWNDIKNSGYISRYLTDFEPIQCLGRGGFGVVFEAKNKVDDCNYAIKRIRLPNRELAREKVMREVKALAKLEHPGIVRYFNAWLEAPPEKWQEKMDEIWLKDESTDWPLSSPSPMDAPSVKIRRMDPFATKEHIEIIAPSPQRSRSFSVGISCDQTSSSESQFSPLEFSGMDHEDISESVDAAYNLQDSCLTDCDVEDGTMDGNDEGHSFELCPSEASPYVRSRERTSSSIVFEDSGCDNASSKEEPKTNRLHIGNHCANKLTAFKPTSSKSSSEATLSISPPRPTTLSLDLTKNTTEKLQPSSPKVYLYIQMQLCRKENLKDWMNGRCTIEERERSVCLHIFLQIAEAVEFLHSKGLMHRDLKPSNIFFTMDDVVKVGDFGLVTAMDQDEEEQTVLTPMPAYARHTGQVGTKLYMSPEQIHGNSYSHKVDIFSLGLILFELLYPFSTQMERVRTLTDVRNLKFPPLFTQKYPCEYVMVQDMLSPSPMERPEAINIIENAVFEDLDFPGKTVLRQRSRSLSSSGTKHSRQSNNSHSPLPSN
Chain of Lysosomal acid glucosylceramidase (P04062 whole entry): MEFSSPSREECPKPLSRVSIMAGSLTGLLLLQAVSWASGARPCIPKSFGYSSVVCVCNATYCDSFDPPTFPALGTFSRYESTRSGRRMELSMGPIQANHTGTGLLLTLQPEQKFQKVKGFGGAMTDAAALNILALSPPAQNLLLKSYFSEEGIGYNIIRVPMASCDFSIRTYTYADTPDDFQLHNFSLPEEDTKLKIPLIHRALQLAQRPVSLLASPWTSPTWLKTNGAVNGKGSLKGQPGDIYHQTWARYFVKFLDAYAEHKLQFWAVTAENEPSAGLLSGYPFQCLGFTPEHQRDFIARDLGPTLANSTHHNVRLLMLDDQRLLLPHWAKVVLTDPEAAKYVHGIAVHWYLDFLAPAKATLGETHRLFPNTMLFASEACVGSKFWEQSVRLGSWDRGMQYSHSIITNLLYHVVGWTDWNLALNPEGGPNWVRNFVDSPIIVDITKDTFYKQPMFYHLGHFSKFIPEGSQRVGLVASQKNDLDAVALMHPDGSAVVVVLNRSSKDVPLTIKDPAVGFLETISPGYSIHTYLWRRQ
Chain of Guanyl-specific ribonuclease T1 (P00651 whole entry): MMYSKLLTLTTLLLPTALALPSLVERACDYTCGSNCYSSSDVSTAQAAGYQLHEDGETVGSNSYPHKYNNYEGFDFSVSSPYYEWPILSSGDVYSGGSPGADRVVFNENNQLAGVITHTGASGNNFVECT

As to `CC12C=C(/C=C/c3ccc(Br)cc3)C(C)(C1)C(c1ccc(Br)cc1)CC2=O` (centres undefined), in [1], the AC50 was 7.94 µM (inconclusive).

Regarding `CC(=O)c1ccc(S(=O)(=O)N2CCN(CC#N)CC2)cc1`, the EC50 in experiment [2] and in experiment [3] was > 55.7 µM (not active) throughout.

For the molecule `CCOC(=O)N1CCC(NCCNC(=O)c2cccs2)CC1`, the concentration giving a half-maximal response (EC50) in experiment [4] was 14.4 µM (inconclusive); in experiment [5], 88.4 µM (inconclusive); in experiment [6] it was 48.9 µM (inconclusive); in experiment [7], 77 µM (inconclusive).

In the case of `O=C(Nn1cnnc1)c1csc2ccccc12`, the IC50 is > 59.6 µM (not active) in experiment [8] and 2.17 µM (active) in [9].

As for `COCCN1C(NCCCOC(C)C)=N[C@@H](c2ccccc2)C(C(=O)OC)=C1C`, the IC50 is 8.01 µM (active) in experiment [10], 5.67 µM (active) in experiment [11], 4.32 µM (active) in experiment [12] and > 100 µM (inactive) in [13].

On to `Fc1ccccc1N1CC(c2ccccc2)C(c2cccs2)=N1` (centres undefined), for which the EC50 in [14] is reported as > 100 µM (not active).

On to `COc1cccc2cc(C(=O)C3=C(O)C(=O)N(CCN4CCOCC4)C3c3cccs3)oc12` (centres undefined), for which the results for the IC50 in [15] and in experiment [16] were 13.7 µM (not active) and > 39.8 µM (not active), respectively.

With `CC1=C(C#N)C(=O)N(C2CCS(=O)(=O)C2)C(=O)/C1=C\c1ccco1` (centres undefined), the half-maximal inhibitory concentration (IC50) in experiment [17] was 7.93 µM (active); in experiment [18] it was 4.68 µM (active); in [19], > 56.8 µM (not active); in experiment [20], > 55.7 µM (not active); in experiment [21] it was 0.142 µM (active).

Consider `CCOc1cc(/C=C2\N=C(SC(C)C(N)=O)N(c3ccc(OC(F)F)cc3)C2=O)ccc1O` (centres undefined), for which the half-maximal effective concentration (EC50) is 19.4 µM (active) in experiment [22], 10.7 µM (active) in [23] and 8.42 µM (active) in experiment [26]. Also, in experiment [24], the IC50 was 91.2 µM (active). Moreover, the CC50 in experiment [25] is 51.2 µM (active).

In the case of `CCN(CC)CCCNC(=O)c1cc(-c2cccc(Cl)c2)on1`, the AC50 in [27] is > 20 µM (inactive). In addition, the EC50 in [28] is reported as > 50 µM (not active).

`CCOc1ccccc1C(=O)Nc1cccc(-c2ccc3nncn3n2)c1`: the cytotoxic concentration (CC50) in experiment [29] is > 40 µM (active).

These data come from ChEMBL document CHEMBL1201862, “PubChem BioAssay data set” (2004).
